Results published in PMC8805316, “NanoBRET in C. elegans illuminates functional receptor interactions in real time” (BMC Molecular and Cell Biology, 2022).
Residues, ends and D or L forms follow the SMILES beside them. No end group written: not given here. *: point of attachment. 5TAMRA = CN(C)c1ccc2c(c1)Oc1cc(N(C)C)ccc1C21OC(=O)c2cc(C(=O)*)ccc21

Tests used:
[1] = biological target: T1, NPR-11 (Caenorhabditis elegans, UniProt Q18179); experiment: cAMP reporter gene assay, transfected HEK293 cells (Fig. S3B); type: cell-based, C. elegans; set-up: expressed in transfected cells; host or cells: HEK293 cells, co-transfected with reporter plasmid pGL4.29 [luc2P/CRE/Hygro]
T1 sequence (Q18179 1-402): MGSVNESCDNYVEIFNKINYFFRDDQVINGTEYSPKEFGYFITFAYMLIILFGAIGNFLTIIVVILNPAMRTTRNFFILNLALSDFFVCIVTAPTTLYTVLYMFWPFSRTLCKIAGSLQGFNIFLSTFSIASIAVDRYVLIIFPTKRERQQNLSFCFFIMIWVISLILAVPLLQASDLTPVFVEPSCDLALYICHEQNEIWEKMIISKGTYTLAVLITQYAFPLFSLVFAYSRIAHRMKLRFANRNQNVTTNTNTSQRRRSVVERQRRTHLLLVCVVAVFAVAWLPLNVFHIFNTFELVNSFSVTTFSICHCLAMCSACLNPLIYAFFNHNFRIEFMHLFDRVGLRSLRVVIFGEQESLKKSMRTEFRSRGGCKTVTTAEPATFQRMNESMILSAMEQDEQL
Experimental: All in vitro experiments were carried out using either HEK293 cells (Homo sapiens, embryonic kidney, DSMZ (German Collection of Microorganisms and Cell Cultures) ACC 305) or COS-7 cells (African green monkey, cercopithecus aethiops, kidney, DSMZ (German Collection of Microorganisms and Cell Cultures) ACC 60). HEK293 cells were kept in Dulbecco’s Modified Eagle’s Medium (DMEM) with Ham’s F-12 (v/v) and 15% (v/v) heat-inactivated fetal calf serum (FCS), while COS-7 cells were cultured in DMEM with 10% (v/v) FCS and 1% (v/v) Penicillin-Streptomycin. All cells were kept at 37 °C under a humidified atmosphere (5% CO2).
NPR-11 activation was read out in the Gi/o pathway by a cAMP reporter gene assay in transiently transfected HEK293 cells as described previously. Briefly, HEK293 cells were grown to 70% confluency and transiently co-transfected with the receptor plasmid (2 μg) and the reporter gene plasmid pGL4.29 [luc2P/CRE/Hygro] (Promega; 2 μg) with MetafectenePro (Biontex). Cells were then re-seeded into 384-well plates. On the next day, the medium was removed, and the cells were stimulated with peptide solution (20 μl) containing 5 μM forskolin (stimulating intracellular cAMP levels) in DMEM and incubated for 4 h. Luciferase substrate OneGlo in lysis buffer (Promega) was added and incubated for 5 min. Luminescence was measured in a microplate reader (Tecan Spark). […]

[2] = biological target: T2, Nluc::NPR-11 (Caenorhabditis elegans, UniProt Q18179); experiment: biochemical; type: binding, C. elegans
T2 construct: expressed in transfected cells; host or cells: transgenic C. elegans (extrachromosomal array, npr-11 knockout background), incised young adult worms
Experimental: (§1) All measurements were conducted using synchronized young adult worms (1 day post L4). Individuals were washed twice with HBSS (Hanks’ balanced salt solution with 25 mM HEPES, pH 7.4, 37 °C) and the number of worms/ μl was calculated.
(§2) For luminescence measurements of intact worms, animals (1; 10; 50; 100 or 500) were directly transferred into the wells of a white flat-bottom 384-well plate in 50 μl HBSS buffer. Worms to be cut were pre-washed with M9 + 0.1% Tween to avoid sticking of worms to the dish and subsequently transferred in 2 ml of HBSS. Incisions were made in the middle of the body with a scalpel blade and worms were immediately afterwards transferred with a glass pipette into HBSS buffer on ice. For mechanically cracking, a worm suspension was homogenized in tubes with 150 μl HBSS and six glass beads (Ø = 3 mm) using with a Precellys homogenizer (Bertin instruments, France) for 40 s at 5000 rpm. Samples were placed on ice until further usage.
For BRET binding assays in vivo, the nanoluciferase (Nluc) was applied as energy donor and either peptides labeled with the TAM fluorophore or the mNeonGreen fluorescent protein fused to a receptor served as acceptor.
30 Nluc-expressing worms with incisions in 50 μl BRET buffer were incubated with dissolving buffer or peptide solutions of final concentrations ranging from 0.05–10 μM in a 384-well plate. During a 25 min incubation with gentle shaking, 10 μl Nano-Glo Live Cell Reagent (N2011, Promega, USA) of a 5x stock were added according to manufacturer’s instructions after 15 min to each well. Competition-binding assays were performed similarly, but additionally, unlabeled peptide (final concentrations 0.016–10 μM) was pipetted into each well and 5 μl of a 10x stock Nano-Glo Live cell reagent was applied after 15 min.
Luminescence (L) and fluorescence (F) were detected with a microplate plate reader (Tecan Spark) using the following filter set: donor = 430–470 nm, acceptor = 550–700 nm with 1000 ms integration time. BRET was calculated by dividing F values by L values. For each experiment, the background signal of donor-only cells was subtracted, such that the BRET ratio at 0 μM ligand equals 0.00. In Fig. 3B (left) and Fig. 3D, the mean of n = 4 (NPR-11) or n = 3 (LAT-1) independent, individually background-corrected single experiments is presented.

[3] = biological target: T1, NPR-11; details: read-out: inhibition binding constant Ki; TAM-FLP-34-1 as fluorescent tracer; ref [35]; cited from earlier work
[4] = biological target: T2, Nluc::NPR-11; experiment: biochemical; type: binding, C. elegans; remark: listed apart in the source
Experimental: as §1
as §2, with “usage. […]” for “usage.”
Luminescence (L) and fluorescence (F) were detected with a microplate plate reader (Tecan Spark) using the following filter set: donor = 430–470 nm, acceptor = 550–700 nm with 1000 ms integration time. BRET was calculated by dividing F values by L values. […]

[5] = test system: NPR-11::Nluc; experiment: Enhanced bystander BRET in vivo, NPR-11::Nluc and CAAX::mNG (Fig. 4C); set-up: species or system C. elegans
Experimental: Luminescence levels depended on the used strain, reaching (without ligand) approximately 2000 AU in Nluc::npr-11 animals and up to 32,000 AU in Nluc::lat-1 expressing worms. For enhanced bystander BRET analyses, 30 cut worms (APR716 and APR718) in 50 μl HBSS buffer were incubated for 10 min with 10 μl of Nano-Glo Live Cell Reagent (5x stock). Luminescence and fluorescence were measured once prior to peptide stimulation. Afterwards, FLP-34-1 (final concentration 5 μM) or H2O with 0.5% BSA and 2.5% DMSO as control were added to each well and luminescence and fluorescence was measured over the course of 80 min. The acceptor filter for this setting was altered to 505–605 nm, while the donor filter remained at 430–470 nm, as before.

| Compound | EC50 [1] [nM] | Kd [2] [nM] | Ki [3] [nM] | Ki [4] [nM] | time after which BRET increases again ([5]; 5 μM FLP-34-1) [min] | change of bystander BRET signal over time ([5]; 5 μM FLP-34-1 vs untreated controls) |
| --- | --- | --- | --- | --- | --- | --- |
| CC[C@H](C)[C@H](NC(=O)[C@H](C)NC(=O)[C@H](CO)NC(=O)[C@H](C)NC(=O)[C@H](Cc1ccccc1)NC(=O)[C@@H](NC(=O)[C@H](CO)NC(=O)[C@@H](NC(=O)[C@H](CC(=O)O)NC(=O)[C@H](C)NC(=O)c1ccc2c(c1)C(=O)OC21c2ccc(N(C)C)cc2Oc2cc(N(C)C)ccc21)[C@@H](C)CC)[C@@H](C)O)C(=O)N[C@@H](CC(N)=O)C(=O)N[C@@H](CC(N)=O)C(=O)N[C@@H](C)C(=O)NCC(=O)N[C@@H](CCCNC(=N)N)C(=O)N[C@@H](CC(C)C)C(=O)N[C@@H](CCCNC(=N)N)C(=O)N[C@@H](Cc1ccc(O)cc1)C(N)=O [TAM-FLP-34-1] (5TAMRA-ADISTFASAINNAGRLRY-NH2) | 0.5 | 1400 | – | – | – | – |
| ADISTFASAINNAGRLRY-NH2 [FLP-34-1] | 2.3 | – | 107 | 1100 | > 70 | decrease of BRET signal |
